pIC50: −log10 of the molar value.
Experiments:
A2780 = test: Antiproliferative activity against human A2780 cells; format: functional, cell-based
[1] = target: Peptidyl-prolyl cis-trans isomerase NIMA-interacting 1 (Homo sapiens, UniProt Q13526); test: Inhibition of Pin1 PPIase activity
Peptidyl-prolyl cis-trans isomerase NIMA-interacting 1, sequence (Q13526 whole entry): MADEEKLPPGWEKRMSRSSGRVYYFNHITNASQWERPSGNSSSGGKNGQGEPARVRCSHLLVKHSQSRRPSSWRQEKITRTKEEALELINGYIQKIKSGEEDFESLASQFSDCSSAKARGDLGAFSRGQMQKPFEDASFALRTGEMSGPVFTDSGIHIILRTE

Row | SMILES | pIC50 (A2780) | pIC50 [1]
1 | CC(C)(C)C(=O)OCOP(=O)(OCOC(=O)C(C)(C)C)OC[C@@H](/C=C1\CCC[C@H]1C(=O)NCCc1c[nH]c2ccccc12)NC(=O)OCC1c2ccccc2-c2ccccc21 | 4.57 | –
2 | O=C(N[C@H](/C=C1\CCC[C@H]1C(=O)NCCc1c[nH]c2ccccc12)COP(=O)(O)O)OCC1c2ccccc2-c2ccccc21 | 4.34 | 4.55

— ChEMBL document CHEMBL1140561, “A phosphorylated prodrug for the inhibition of Pin1” (Bioorg Med Chem Lett, 2007)
